Where a chain is given by its changes, count along the chain named.

Data on 1 molecule can be found in patent US12478605B2, “Biochanin a derivatives for treatment of BEST1-related retinopathies” (Universität Regensburg, priority 2020, dated 2025).

Assay type in all cases: cell-based
One test has as its target T1, mutant BEST1 R218C (Homo sapiens, UniProt O76090, R218C).
T1 construct: expressed in transfected cells
T1 sequence (O76090 1-585 R218C): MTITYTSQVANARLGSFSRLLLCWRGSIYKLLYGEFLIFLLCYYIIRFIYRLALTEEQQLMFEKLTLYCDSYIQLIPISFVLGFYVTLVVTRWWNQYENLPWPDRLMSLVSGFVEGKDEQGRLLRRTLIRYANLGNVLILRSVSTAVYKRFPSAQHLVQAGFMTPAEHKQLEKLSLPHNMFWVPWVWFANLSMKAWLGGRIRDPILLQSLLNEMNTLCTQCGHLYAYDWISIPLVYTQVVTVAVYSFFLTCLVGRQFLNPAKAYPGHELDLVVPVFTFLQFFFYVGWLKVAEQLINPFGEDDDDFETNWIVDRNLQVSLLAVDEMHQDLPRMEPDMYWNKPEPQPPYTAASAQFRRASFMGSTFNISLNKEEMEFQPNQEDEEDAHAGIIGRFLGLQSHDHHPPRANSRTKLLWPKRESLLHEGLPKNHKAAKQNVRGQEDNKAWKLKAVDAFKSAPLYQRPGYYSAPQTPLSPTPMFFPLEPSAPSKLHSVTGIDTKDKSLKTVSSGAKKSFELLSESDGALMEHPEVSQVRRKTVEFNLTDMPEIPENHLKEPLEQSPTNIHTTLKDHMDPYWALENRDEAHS
Kind of test: YFP-based I- efflux assay in MDCKII cells co-expressing YFP and mutant BEST1 R218C. The conditions noted are these: 5 μM, compound addition for 24 h, FIGS. 6-8. How it is done: MDCKII cells co-expressing yellow fluorescence protein (YFP) and mutant BEST1 R218C were seeded on black 96-well plates and cultivated for 6 days to achieve polarity, a crucial requirement for correct basolateral localization of BEST1 in epithelial cells. Compounds were tested at 5 μM concentration in a 96-well format. After compound addition for 24 h, cells were subjected to an outwardly directed iodid (I^−)-gradient to drive BEST1-mediated I^− efflux and produce increasing fluorescence signals. Each assay consisted of recording of YFP quenching after I^− pre-incubation for 6 min (=100% value), followed by 7 min of recording of increasing fluorescence after addition of the chloride (Cr) containing solution. Changes of fluorescence intensities were monitored on a plate reader. The effect on the kinetics of I— efflux was tested for Biochanin A (FIG. 6A), Trimethoxyisoflavone (FIG. 6B), 5,4-dimethoxy hydroxyisoflavone (FIG. 6C), Biochanin A-7-methyl ether (FIG. 6D), Biochanin A-7-acetate (FIG. 6E), Biochanin A diacetate (FIG. 6F), Biochanin A-7-pentanoate (FIG. 6G), Biochanin A dipentanoate (FIG. 6H), Biochanin A-7-pivalate (FIG. 7A), Biochanin A-dipavalate (FIG. 7B), Biochanin A-7-acrylate (FIG. 7C), Biochanin A diacrylate (FIG. 7D), Biochanin A-7-methyl fumarate (FIG. 7E), Biochanin A-di(methyl fumarate) (FIG. 7F), Biochanin A-7-butylcarbamate (FIG. 7G), Biochanin A di(butylcarbamate) (FIG. 7H), Biochanin A-7-phosphate disodium salt (FIG. 8A), Biochanin A-7-isopropylate (FIG. 8B), 7-pivaloxymethyl-Biochanin A (FIG. 8C), Biochanin A diisopropylate (FIG. 8D), Biochanin A-7-isopropyl carbonate (FIG. 8E), Biochanin A diisopropyl carbonate (FIG. 8F), Isopropyloxycarbonylmethoxy-Biochanin A (FIG. 8G).

The next test concerns the target T2, BEST-Y227N (Homo sapiens, UniProt O76090, Y227N).
T2 construct: expressed in transfected cells
T2 sequence (O76090 1-585 Y227N): T1 sequence (O76090 1-585 R218C) with C218R, Y227N
Kind of test: YFP-halide transport assay (I- influx), MDCKII cells expressing mutant BEST-Y227N. The conditions noted are these: various concentrations from 2 μM to 20 μM, 24 h, FIG. 4C.

Test [1] concerns untransfected MDCKII cells. Kind of test: YFP-halide transport assay (I- influx), untransfected MDCKII controls. The following applies: compound addition for 24 h, YFP quenching, FIG. 4B. How it is done:
Human hiPSC-RPE or MDCKII cells were transduced via lentivirus particles which were produced by co-transfecting HEK293T cells with the yellow fluorescence protein (YFPH148Q/I152L)-pLJM1 and helper plasmids pMD2.G and psPAX2 using the Ca^2+ phospate transfection method. After six weeks of cultivation in 96-well black microtiter plates, cells were incubated with 100 mM Cl^− containing solution and basal YFP fluorescence was measured in a Tecan microplate reader. Subsequently Cl^− was replaced with equimolar I^− and decrease of YFP fluorescence intensity was monitored for another 2 min in 10 sec intervals.
To analyze BEST1-mediated anion transport in the cell lines generated in the previous examples, a well-established halide transport assay (Galietta et al., 2001) was adapted. […] Addition of I— leads to specific YFP quenching over time and changes of fluorescence intensities can be monitored on a plate reader. MDCKII cells were incubated with 100 mM Cl— containing solution and steady state YFP fluorescence signal intensities were measured after 6 minutes. Subsequently, Cl— was replaced by equimolar I— and anion permeability was monitored by decreasing YFP intensities as a result of BEST1-mediated I— influx in a time course up to 2 minutes (FIG. 2B). […]

For `COc1ccc(-c2coc3cc(OC(C)=O)cc(OC(C)=O)c3c2=O)cc1` [Biochanin A diacetate, 3-(4-Methoxyphenyl)-4oxo-4H-chromene-5,7-diyl diacetate], the “anion transport activity (kinetics of I- efflux) in comparison to untreated cells” value on mutant BEST1 R218C is listed as “strongly increased”. Also, the “anion transport activity (I- influx)” value at BEST-Y227N is listed as “moderately increased”. In addition, the “effect on kinetics of I- influx (anion transport activity)” value in test [1] was “no or only little effect”.
